# According to patent US10286022B2, “Medicinal composition of extract of seed of emblica officinalis and method of preparing the same” (priority 2013, dated 2019):
# Legend:
# [1] = tested on: Triton WR 1339 induced dyslipidemia in Albino rats (Sprague Dawley strain); test: Hypolipidemic activity of enriched amla seed extract, Triton WR 1339 model (Example 28); assay type: in vivo, rat
# Experimental: Fifty two male Albino rats (Sprague Dawley strain) weighing approximately 250-300 gm were selected for the study. The animals were maintained at temperature of 24±2° C., 65% relative humidity and 12 hr light/dark cycle. The rats were acclimatized for two weeks and during this period they had access to standard pellet diet and water ad libitum. After two weeks of acclimatization, all the rats were fasted overnight before injecting Triton WR 1339 (Tyloxapol) and administration of test extracts/standard. The animals were divided into thirteen groups. Following treatment was given to overnight fasted rats: • Group I: Normal control (vehicle only). • Group II: Triton WR 1339 (300 mg/kg, intraperitoneal). • Group III: Triton WR 1339 (300 mg/kg, intraperitoneal) followed by administering sample 1 of Amla seed extract prepared as per example 27 on the same day of triton administration (0.5 mg/kg, per oral). • Group IV: Triton WR 1339 (300 mg/kg, intraperitoneal) followed by Amla seed extract prepared as per example 1 (0.5 mg/kg, per oral). • Group V: Triton WR 1339 (300 mg/kg, intraperitoneal) followed by sample 2 which is a 1:1 combination of amla seed extract (sample 1) prepared as per example 27 and product 1 (Hexane fraction) of amla seed extract prepared as per example 13 on the same day that Triton was administered (0.5 mg/kg, per oral). • Group VI: Triton WR 1339 (300 mg/kg, intraperitoneal) followed by administering product of amla seed extract (product 3) prepared as per example 13 on the same day of triton administration (0.5 mg/kg, per oral). • Group VII: Triton WR 1339 (300 mg/kg, intraperitoneal) followed by product 2 (50% methanol fraction+80% methanol fraction+water fraction) of amla seed extract prepared as per example 13 on the same day that triton was administered (0.5 mg/kg, per oral). • Group VIII: Triton WR 1339 (300 mg/kg, intraperitoneal) followed by product 1 (hexane fraction) of amla seed extract prepared as per example 13 on the same day that triton was administered (0.5 mg/kg, per oral). • Group IX: Triton WR 1339 (300 mg/kg, intraperitoneal) followed by water extract of dried amla seed powder prepared as per example 8 (0.5 mg/kg, per oral). • Group X: Triton WR 1339 (300 mg/kg, intraperitoneal) followed by methanol extract of dried amla seed powder prepared as per example 9 (0.5 mg/kg, per oral). • Group XI: Triton WR 1339 (300 mg/kg, intraperitoneal) followed by water extract of dried amla fruit powder prepared as per example 11 (0.5 mg/kg, per oral). • Group XII: Triton WR 1339 (300 mg/kg, intraperitoneal) followed by methanol extract of dried amla fruit powder prepared as per example 12 (0.5 mg/kg, per oral). • Group XIII: Triton WR 1339 (300 mg/kg, intraperitoneal) followed by atorvastatin administration (10 mg/kg, per oral), on the same day.
# The animals were deprived of food for next 24 hours but had free access to water ad libitum. After 24 hours of drug treatment, 2 ml of blood sample was collected from the retro orbital plexus. The blood was allowed to clot and then centrifuged at 3000 rpm for 10 min and the serum was carefully drawn and collected into separate tubes. The serum was analyzed for total cholesterol, triglycerides, high density lipoproteins (HDL), low density lipoproteins (LDL) and very low density lipoproteins (VLDL) levels using auto-analyzer.
# [2] = tested on: Triton WR 1339 induced dyslipidemia in Albino rats (Sprague Dawley strain); test: Hypolipidemic activity in different doses, Triton WR 1339 induced dyslipidemia model (Example 19); assay type: in vivo, rat
# Experimental: Sixty male Albino rats (Sprague Dawley strain) weighing approximate 250-300 gm were selected for the study. The animals were kept in the animal house maintained at temp 24±2° C., 65% relative humidity and 12 hr light/dark cycle. The rats were acclimatized for two weeks and during this period they had access to standard pellet diet and water ad libitum. After two weeks of acclimatization, all the rats were fasted overnight before injecting Triton WR 1339 (Tyloxapol) and administration of test extracts/standard. The animals were divided into ten groups. Following treatment was given to overnight fasted rats: • Group I: Normal control (vehicle only). • Group II: Triton WR 1339 (300 mg/kg, intraperitoneal). • Group III: Triton WR 1339 (300 mg/kg, intraperitoneal) followed by amla seed extract prepare as per example 1 (10 mg/kg, per oral). • Group IV: Triton WR 1339 (300 mg/kg, intraperitoneal) followed by amla seed extract prepare as per example 1 (7.5 mg/kg, per oral). • Group V: Triton WR 1339 (300 mg/kg, intraperitoneal) followed by amla seed extract prepare as per example 1 (5 mg/kg, per oral). • Group VI: Triton WR 1339 (300 mg/kg, intraperitoneal) followed by amla seed extract prepare as per example 1 (2.5 mg/kg, per oral). • Group VII: Triton WR 1339 (300 mg/kg, intraperitoneal) followed by amla seed extract prepare as per example 1 (2 mg/kg, per oral). • Group VIII: Triton WR 1339 (300 mg/kg, intraperitoneal) followed by amla seed extract prepare as per example 1 (1 mg/kg, per oral). • Group IX: Triton WR 1339 (300 mg/kg, intraperitoneal) followed by amla seed extract prepare as per example 1 (0.5 mg/kg, per oral). • Group X: Triton WR 1339 (300 mg/kg, intraperitoneal) followed by atorvastatin (10 mg/kg. per oral).
# The animals were deprived of food for next 24 hours but had free access to water ad libitum. After 24 hour of drug treatment 2 ml blood samples were collected from the retro orbital plexus. The blood was allowed to clot and then centrifuged at 3000 rpm for 10 min and the serum was carefully drawn and collected into separate tubes. The serum was analyzed for total cholesterol, triglycerides, high density lipoproteins (HDL), low density lipoproteins (LDL) and very low density lipoproteins (VLDL) levels using auto-analyzer.
# [3] = 24 h after Triton i.p. + 10 mg/kg p.o.
smiles,measurement,setting,value
CC(C)c1c(C(=O)Nc2ccccc2)c(-c2ccccc2)c(-c2ccc(F)cc2)n1CC[C@@H](O)C[C@@H](O)CC(=O)O [Atorvastatin],HDL After,[1]; [3],35.1 mg/dL
same,LDL After,[1]; [3],49.39 mg/dL
same,TC After,[1]; [3],124.54 mg/dL
same,TG After,[1]; [3],200.25 mg/dL
same,VLDL After,[1]; [3],40.06 mg/dL
same,HDL Before,"[1]; baseline, 10 mg/kg p.o. group",32.41 mg/dL
same,LDL Before,"[1]; baseline, 10 mg/kg p.o. group",61.7 mg/dL
same,TC Before,"[1]; baseline, 10 mg/kg p.o. group",104.21 mg/dL
same,TG Before,"[1]; baseline, 10 mg/kg p.o. group",50.54 mg/dL
same,VLDL Before,"[1]; baseline, 10 mg/kg p.o. group",10 mg/dL
same,HDL After,[2]; [3],39.83 mg/dL
same,LDL After,[2]; [3],60.23 mg/dL
same,TC After,[2]; [3],120.83 mg/dL
same,TG After,[2]; [3],103.86 mg/dL
same,VLDL After,[2]; [3],20.77 mg/dL
same,effect on cholesterol and triglyceride level,"[2]; amla seed extract 0.5 to 10 mg/kg p.o., atorvastatin 10 mg/kg p.o.",effective in lowering the cholesterol as well as triglyceride level
same,HDL Before,"[2]; baseline, 10 mg/kg p.o. group",31.66 mg/dL
same,LDL Before,"[2]; baseline, 10 mg/kg p.o. group",47.75 mg/dL
same,TC Before,"[2]; baseline, 10 mg/kg p.o. group",87.43 mg/dL
same,TG Before,"[2]; baseline, 10 mg/kg p.o. group",39.9 mg/dL
same,VLDL Before,"[2]; baseline, 10 mg/kg p.o. group",7.98 mg/dL
